Our source for the IC50 values is patent publication US11020398B2, “Amino-pyrrolopyrimidinone compounds and methods of use thereof” (ArQule, Inc., priority 2016, dated 2021).

In this experiment the target is phosphorylated form of full length BTK (active BTK) (Homo sapiens (Human), UniProt Q06187). The experiment in a line: Mobility shift assay (MSA, Caliper LabChip), active BTK assay. The note with it: Assay type B (MSA using active BTK). Format: biochemical. The procedure: The active BTK assay consists of phosphorylated form of full length BTK. […] The enzyme inhibitor complexes is incubated, before the kinase activation reaction is initiated.
Chain of phosphorylated form of full length BTK (active BTK) (Q06187 whole entry): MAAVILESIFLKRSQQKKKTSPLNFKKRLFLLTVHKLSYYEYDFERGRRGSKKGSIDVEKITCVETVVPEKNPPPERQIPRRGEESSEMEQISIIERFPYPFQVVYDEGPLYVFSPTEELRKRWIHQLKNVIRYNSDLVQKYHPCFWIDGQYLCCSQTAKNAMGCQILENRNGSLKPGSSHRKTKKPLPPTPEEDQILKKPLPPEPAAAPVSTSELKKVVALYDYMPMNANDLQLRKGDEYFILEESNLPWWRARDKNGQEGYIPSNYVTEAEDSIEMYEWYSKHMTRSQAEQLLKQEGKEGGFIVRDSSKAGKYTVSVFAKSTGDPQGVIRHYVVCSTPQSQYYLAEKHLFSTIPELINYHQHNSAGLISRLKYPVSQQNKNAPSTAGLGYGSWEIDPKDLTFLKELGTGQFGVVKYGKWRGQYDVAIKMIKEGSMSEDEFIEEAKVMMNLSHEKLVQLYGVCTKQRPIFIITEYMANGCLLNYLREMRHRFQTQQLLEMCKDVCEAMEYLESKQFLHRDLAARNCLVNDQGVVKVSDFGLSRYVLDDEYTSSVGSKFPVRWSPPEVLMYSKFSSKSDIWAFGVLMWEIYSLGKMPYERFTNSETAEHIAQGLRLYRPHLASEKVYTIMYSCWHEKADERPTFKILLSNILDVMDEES
Mobility Shift Assay (MSA)
The active BTK assay consisted of phosphorylated form of full length BTK. […] The enzyme inhibitor complexes was incubated for 30 minutes at the room temperature and the kinase activation reaction was initiated by the addition of 1 μM Srctide peptide substrate and […].

For orientation: IC50 means the concentration that inhibits the measured activity by half. Take `O=C(c1ccc(Oc2ccccc2)cc1Cl)c1c[nH]c2ncnc(N[C@H]3CC[C@H](O)[C@H](O)C3)c12` (racemic) [Compound I-180, rac-(2-chloro-4-phenoxyphenyl)(4-(((1S,3R,4S)-3,4-dihydroxycyclohexyl)amino)-7H-pyrrolo[2,3-d]pyrimidin-5-yl)methanone]: the IC50 turned out to be 1.8 nM. The value for `CC(O)CCCCC(=O)N[C@H]1CC[C@@H](Nc2ncnc3[nH]cc(C(=O)c4ccc(Oc5ccccc5)cc4Cl)c23)CC1` (mixture of isomers) [Compound I-212, rac-N-(cis-4-((5-(2-chloro-4-phenoxybenzoyl)-7H-pyrrolo[2,3-d]pyrimidin-4-yl)amino)cyclohexyl)-6-hydroxyheptanamide] was 2.9 nM; that for `CC(O)CCCCCC(=O)N[C@H]1CC[C@@H](Nc2ncnc3[nH]cc(C(=O)c4ccc(Oc5ccccc5)cc4Cl)c23)CC1` (mixture of isomers) [Compound I-214, rac-N-(cis-4-((5-(2-chloro-4-phenoxybenzoyl)-7H-pyrrolo[2,3-d]pyrimidin-4-yl)amino)cyclohexyl)-7-hydroxyoctanamide] was 7.4 nM; that for `C[C@H](O)C(=O)N(C)[C@H]1CC[C@@H](Nc2ncnc3[nH]cc(C(=O)c4ccccc4Cl)c23)CC1` [Compound I-106, (S)—N-(cis-4-((5-(2-chlorobenzoyl)-7H-pyrrolo[2,3-d]pyrimidin-4-yl)amino)cyclohexyl)-2-hydroxy-N-methylpropanamide] was 4.6 nM. The value for `COC[C@]1(O)CC[C@H](Nc2ncnc3[nH]cc(C(=O)c4ccccc4Cl)c23)CC1` [Compound I-107, (2-chlorophenyl)(4-((trans-4-hydroxy-4-(methoxymethyl)cyclohexyl)amino)-7H-pyrrolo[2,3-d]pyrimidin-5-yl)methanone] was 12 nM. Consider `COC[C@]1(O)CC[C@@H](Nc2ncnc3[nH]cc(C(=O)c4ccccc4Cl)c23)CC1` [Compound I-108, (2-chlorophenyl)(4-((cis-4-hydroxy-4-(methoxymethyl)cyclohexyl)amino)-7H-pyrrolo[2,3-d]pyrimidin-5-yl)methanone], for which the IC50 stood at 7 nM. As for `COC1CN([C@H]2CC[C@@H](Nc3ncnc4[nH]cc(C(=O)c5ccccc5Cl)c34)CC2)C1` [Compound I-109, (2-chlorophenyl)(4-((cis-4-(3-methoxyazetidin-1-yl)cyclohexyl)amino)-7H-pyrrolo[2,3-d]pyrimidin-5-yl)methanone], the IC50 came to 3.2 nM. The value for `COC1CN([C@H]2CC[C@H](Nc3ncnc4[nH]cc(C(=O)c5ccccc5Cl)c34)CC2)C1` [Compound I-110, (2-chlorophenyl)(4-((trans-4-(3-methoxyazetidin-1-yl)cyclohexyl)amino)-7H-pyrrolo[2,3-d]pyrimidin-5-yl)methanone] was 16 nM.

Regarding `CC1(O)CN([C@H]2CC[C@@H](Nc3ncnc4[nH]cc(C(=O)c5ccccc5Cl)c34)CC2)C1` [Compound I-111, (2-chlorophenyl)(4-((cis-4-(3-hydroxy-3-methylazetidin-1-yl)cyclohexyl)amino)-7H-pyrrolo[2,3-d]pyrimidin-5-yl)methanone], the IC50 is 3 nM. On to `CC1(O)CN([C@H]2CC[C@H](Nc3ncnc4[nH]cc(C(=O)c5ccccc5Cl)c34)CC2)C1` [Compound I-112, (2-chlorophenyl)(4-((trans-4-(3-hydroxy-3-methylazetidin-1-yl)cyclohexyl)amino)-7H-pyrrolo[2,3-d]pyrimidin-5-yl)methanone], for which the IC50 was 18 nM. The value for `CC1(N)CN([C@H]2CC[C@@H](Nc3ncnc4[nH]cc(C(=O)c5ccccc5Cl)c34)CC2)C1` [Compound I-113, (4-((cis-4-(3-amino-3-methylazetidin-1-yl)cyclohexyl)amino)-7H-pyrrolo[2,3-d]pyrimidin-5-yl)(2-chlorophenyl)methanone] was 3.6 nM.

On to `CC1(N)CN([C@H]2CC[C@H](Nc3ncnc4[nH]cc(C(=O)c5ccccc5Cl)c34)CC2)C1` [Compound I-114, (4-((trans-4-(3-amino-3-methylazetidin-1-yl)cyclohexyl)amino)-7H-pyrrolo[2,3-d]pyrimidin-5-yl)(2-chlorophenyl)methanone], for which the IC50 is 23 nM. Regarding `CC(C)(O)C(=O)N[C@H]1CC[C@@H](Nc2ncnc3[nH]cc(C(=O)c4ccccc4Cl)c23)CC1` [Compound I-115, N-(cis-4-((5-(2-chlorobenzoyl)-7H-pyrrolo[2,3-d]pyrimidin-4-yl)amino)cyclohexyl)-2-hydroxy-2-methylpropanamide], the IC50 was 5.8 nM. For the molecule `CC(=O)N[C@@H](C)[C@@H]1CC[C@@H](Nc2ncnc3[nH]cc(C(=O)c4ccccc4Cl)c23)CO1` [Compound I-116, N—((S)-1-((2S,5R)-5-((5-(2-chlorobenzoyl)-7H-pyrrolo[2,3-d]pyrimidin-4-yl)amino)tetrahydro-2H-pyran-2-yl)ethyl)acetamide], the IC50 turned out to be 5.9 nM. With `CC(=O)N[C@@H](C)[C@@H]1CC[C@@H](Nc2ncnc3[nH]cc(C(=O)c4ccccc4C)c23)CO1` [Compound I-117, N—((S)-1-((2S,5R)-5-((5-(2-methylbenzoyl)-7H-pyrrolo[2,3-d]pyrimidin-4-yl)amino)tetrahydro-2H-pyran-2-yl)ethyl)acetamide], the concentration for half-maximal inhibition (IC50) was 5.9 nM. The value for `CC(=O)NC[C@@H]1CC[C@@H](Nc2ncnc3[nH]cc(C(=O)c4ccccc4Cl)c23)CO1` [Compound I-118, N-(((2S,5R)-5-((5-(2-chlorobenzoyl)-7H-pyrrolo[2,3-d]pyrimidin-4-yl)amino)tetrahydro-2H-pyran-2-yl)methyl)acetamide] was 4.4 nM; that for `CC(=O)NC[C@@H]1CC[C@@H](Nc2ncnc3[nH]cc(C(=O)c4ccccc4C)c23)CO1` [Compound I-119, N-(((2S,5R)-5-((5-(2-methylbenzoyl)-7H-pyrrolo[2,3-d]pyrimidin-4-yl)amino)tetrahydro-2H-pyran-2-yl)methyl)acetamide] was 5.1 nM; that for `CS(=O)(=O)Nc1cccc(C(=O)c2c[nH]c3ncnc(N[C@H]4CC[C@@H](N)CC4)c23)c1` [Compound I-120, N-(3-(4-((cis-4-aminocyclohexyl)amino)-7H-pyrrolo[2,3-d]pyrimidine-5-carbonyl)phenyl)methanesulfonamide] was 121 nM. Regarding `N[C@H]1CC[C@@H](Nc2ncnc3[nH]cc(C(=O)c4cccc(NS(=O)(=O)c5ccccc5)c4)c23)CC1` [Compound I-121, N-(3-(4-((cis-4-aminocyclohexyl)amino)-7H-pyrrolo[2,3-d]pyrimidine-5-carbonyl)phenyl)benzenesulfonamide], the IC50 was determined as 7.3 nM. On to `CC(=O)NC[C@@H]1CC[C@@H](Nc2ncnc3[nH]cc(C(=O)c4ccc(Oc5ccccc5)cc4Cl)c23)CO1` [Compound I-127, N-(((2S,5R)-5-((5-(2-chloro-4-phenoxybenzoyl)-7H-pyrrolo[2,3-d]pyrimidin-4-yl)amino)tetrahydro-2H-pyran-2-yl)methyl)acetamide], for which the IC50 is 1.63 nM.

With `N[C@H]1CC[C@@H](Nc2ncnc3[nH]cc(C(=O)c4ccc(Oc5ccccc5)cc4)c23)CC1` [Compound I-130, (4-((cis-4-aminocyclohexyl)amino)-7H-pyrrolo[2,3-d]pyrimidin-5-yl)(4-phenoxyphenyl)methanone], the IC50 is 3.2 nM.
